Test results from ChEMBL document CHEMBL1135933, “Synthesis of nitroindole derivatives with high affinity and selectivity for melatoninergic binding sites MT(3)” (J Med Chem, 2002).

Legend:
[1] = target: Melatonin receptor type 1A (Homo sapiens, UniProt P48039); experiment: Inhibition of 2-[125I]iodomelatonin binding to human Melatonin receptor type 1A expressed in HEK293 cells; type: cell-based
[2] = target: T1, Melatonin receptor type 1B (Homo sapiens, UniProt P49286); experiment: Inhibition of 2-[125I]iodomelatonin binding to human Melatonin receptor type 1B expressed in HEK293 cells; type: cell-based
T1 sequence (P49286 whole entry): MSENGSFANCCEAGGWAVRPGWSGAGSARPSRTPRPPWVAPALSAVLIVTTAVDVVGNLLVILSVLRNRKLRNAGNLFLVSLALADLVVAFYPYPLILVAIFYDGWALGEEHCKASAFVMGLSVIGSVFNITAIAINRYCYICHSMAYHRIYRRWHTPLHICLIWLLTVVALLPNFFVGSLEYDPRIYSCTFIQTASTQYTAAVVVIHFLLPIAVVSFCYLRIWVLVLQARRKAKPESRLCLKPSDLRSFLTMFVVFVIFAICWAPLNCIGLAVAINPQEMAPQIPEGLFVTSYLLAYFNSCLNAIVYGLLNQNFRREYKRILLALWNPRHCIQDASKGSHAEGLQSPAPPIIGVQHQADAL

[3] = organism: Homo sapiens; experiment: Selectivity ratio of binding affinity at MT2 receptor relative to MT3 receptor
[4] = organism: Homo sapiens; experiment: Selectivity ratio of binding affinity at MT1 receptor relative to MT3 receptor

Sequence of Melatonin receptor type 1A (P48039 whole entry): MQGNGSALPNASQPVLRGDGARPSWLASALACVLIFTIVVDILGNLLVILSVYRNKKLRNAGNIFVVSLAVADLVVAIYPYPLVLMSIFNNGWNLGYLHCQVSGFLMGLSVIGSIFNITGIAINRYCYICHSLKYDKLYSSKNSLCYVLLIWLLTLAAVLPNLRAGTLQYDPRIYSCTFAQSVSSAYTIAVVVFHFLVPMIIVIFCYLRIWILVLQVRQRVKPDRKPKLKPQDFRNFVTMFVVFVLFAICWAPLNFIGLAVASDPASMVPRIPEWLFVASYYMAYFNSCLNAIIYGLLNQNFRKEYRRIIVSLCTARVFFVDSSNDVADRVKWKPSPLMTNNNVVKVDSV

Row | Ki [1] | Ki [2] | Selectivity [3] | Selectivity [4] | Structure (SMILES)
1 | 1.1 nM | 0.77 nM | – | – | COc1cc2c(CCNC(C)=O)c(I)n(C)c2cc1[N+](=O)[O-]
2 | 0.08 nM | 0.047 nM | – | – | COc1ccc2c(c1)c(CCNC(C)=O)c(I)n2C
3 | 8560 nM | 194 nM | 625 | 27600 | COc1ccc2c(c(CCNC(C)=O)cn2C)c1[N+](=O)[O-]
4 | 1880 nM | 39 nM | – | – | COc1ccc2c(c(CCNC(C)=O)c(I)n2C)c1[N+](=O)[O-]
5 | 14.6 nM | 5.3 nM | – | – | COc1cc2c(CCNC(C)=O)c[nH]c2cc1[N+](=O)[O-]
6 | 0.3 nM | – | – | – | COc1cc2c(CCNC(C)=O)c(I)[nH]c2cc1[N+](=O)[O-]
7 | 19.2 nM | 23.7 nM | – | – | COc1ccc2[nH]c(I)c(CCNC(C)=O)c2c1[N+](=O)[O-]
8 | 1060 nM | 820 nM | 745 | 964 | COc1ccc2[nH]cc(CCNC(C)=O)c2c1[N+](=O)[O-]
9 | 49 nM | 29 nM | – | – | COc1cc([N+](=O)[O-])c2[nH]cc(CCNC(C)=O)c2c1
10 | 2.6 nM | 3.1 nM | 1.1 | 0.929 | COc1ccc2c(c1)c(CCNC(C)=O)cn2C
